Test results from ChEMBL document CHEMBL4177745, “2-Methyltetrahydro-3-benzazepin-1-ols - The missing link in SAR of GluN2B selective NMDA receptor antagonists” (Bioorg Med Chem, 2018).

Assays:
[1] = biological target: T1, Sigma intracellular receptor 2 (Rattus norvegicus, UniProt Q5U3Y7); assay: Displacement of [3H]-DTG from sigma 2 receptor in rat liver membranes after 120 mins by scintillation counting analysis; format: cell membranes, Membrane
T1 sequence (Q5U3Y7 whole entry): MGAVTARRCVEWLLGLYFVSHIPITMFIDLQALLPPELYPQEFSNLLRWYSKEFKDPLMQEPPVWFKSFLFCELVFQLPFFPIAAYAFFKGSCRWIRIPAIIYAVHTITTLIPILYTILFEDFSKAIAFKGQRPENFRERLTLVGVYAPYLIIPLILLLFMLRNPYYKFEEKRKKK

[2] = Displacement of [3H]-ifenprodil from recombinant human GluN1a/GluN2B expressed in L(tk-) cell membranes after 120 mins by scintillation counting analysis
[3] = biological target: Sigma non-opioid intracellular receptor 1 (Cavia porcellus, UniProt Q60492); assay: Displacement of [3H]-(+)-Pentazocine from sigma 1 receptor in guinea pig brain cortex membranes after 120 mins by scintillation counting analysis; format: cell membranes
[4] = Selectivity ratio of Ki for recombinant human GluN1a/GluN2B expressed in L(tk-) cell membranes to Ki for sigma 1 receptor in guinea pig brain cortex membranes; format: cell-based

Sequence of Sigma non-opioid intracellular receptor 1 (Q60492 whole entry): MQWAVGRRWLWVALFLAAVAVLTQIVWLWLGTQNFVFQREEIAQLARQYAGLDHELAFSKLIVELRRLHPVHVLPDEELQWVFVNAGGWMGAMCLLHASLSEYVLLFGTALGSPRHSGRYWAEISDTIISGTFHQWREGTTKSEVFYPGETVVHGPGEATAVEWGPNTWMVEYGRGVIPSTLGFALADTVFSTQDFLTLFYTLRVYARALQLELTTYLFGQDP

Structure (SMILES)	Ki [1] [µM]	Ki [3] [µM]	Ki [2] [µM]	Ratio Ki [4]
Oc1ccc2c(c1)CCN(CCCCc1ccccc1)CC2O (centres undefined)	> 10		0.014	
OC1CN(CCCCc2ccccc2)CCc2ccccc21 (centres undefined)	0.076	0.676	0.073	
CC(C(O)c1ccc(O)cc1)N1CCC(Cc2ccccc2)CC1 (centres undefined) [IFENPRODIL]			0.01	

The next lines start with results.

Ki [1] [µM]	Ki [3] [µM]	Structure (SMILES)	Ki [2] [µM]	Ratio Ki [4]
0.148		C[C@@H]1[C@H](O)c2ccc(O)cc2CCN1CCCCc1ccccc1	0.017	
0.126	0.046	C[C@@H]1[C@H](O)c2ccccc2CCN1CCCCc1ccccc1 (relative stereo)	0.252	5
0.894	0.261	C[C@@H]1[C@H](O)c2ccccc2CCN1Cc1ccccc1 (relative stereo)	0.259	
0.06	0.01	C[C@@H]1[C@H](O)c2ccccc2CCN1CCCCCc1ccccc1 (relative stereo)	0.056	5
